Reference: the SangsterLogP compilation

assay: method code SF-HPLC, from DOI: 10.1016/0378-5173(85)90030-4

Question: Which logP does the source give for `CC(=O)OCn1ncc2c(=O)[nH]cnc21` here?
Answer: The logP was -0.35.

Question: Which logP does the source give for `CCCC(=O)OCn1cnc2c(cnn2COC(=O)CCC)c1=O` here?
Answer: Its logP is 1.82.

Question: With `CCN(CC)C(=O)CCC(=O)OCn1ncc2c(=O)[nH]cnc21` as the compound, how does the logP read?
Answer: Its logP is -0.22.

Question: Which logP does the source give for `O=C(OCn1ncc2c(=O)[nH]cnc21)c1ccccc1` here?
Answer: Its logP is 1.5.

Question: Which logP does the source give for `CC(C)(C)C(=O)OCn1cc2c(=O)[nH]cnc2n1` here?
Answer: Its logP is 0.79.

Question: For `CCCC(=O)OCn1cc2c(=O)[nH]cnc2n1`, which logP is on record?
Answer: The logP was 0.33.

Question: With `CC(C)(C)C(=O)OCn1ncc2c(=O)[nH]cnc21` as the compound, how does the logP read?
Answer: The logP was 1.07.

Question: For `O=C(OCn1ncc2c(=O)[nH]cnc21)c1cccnc1`, which logP is on record?
Answer: The logP was 0.27.

Question: With `CCCC(=O)OCn1ncc2c(=O)[nH]cnc21` as the compound, how does the logP read?
Answer: The logP was 0.6.

Question: For `CC(C)(C)C(=O)OCn1cc2c(=O)n(COC(=O)C(C)(C)C)cnc2n1`, which logP is on record?
Answer: Its logP is 2.34.

Question: For `CC(C)(C)C(=O)OCn1cnc2c(cnn2COC(=O)C(C)(C)C)c1=O`, which logP is on record?
Answer: The logP was 2.5.

Question: For `CCOC(=O)OCn1ncc2c(=O)[nH]cnc21`, which logP is on record?
Answer: The logP was 0.21.
